In patent US20230295182A1, “SPIRO DERIVATIVES OF ALPHA-D-GALACTOPYRANOSIDES” (Idorsia Pharmaceuticals Ltd, priority 2020, published 2023):

Columns and labels:
human Gal-3 (hGal-3) = human Gal-3 (hGal-3) (Homo sapiens (Human), UniProt P17931); test: Competitive binding assay: biotinylated hGal-3 to microplate-adsorbed asialofetuin (ASF); details: Activity on hGal-3; binding to ASF-coated plates, 3 hours at 4° C.; mean values
Summary of the method: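 Biotinylated hGal-3 (300-1000 ng/mL) binding to plate-adsorbed asialofetuin, with DMSO-diluted compound added, incubated 3 h at 4 °C. After washing, bound protein detected with streptavidin-peroxidase (80 ng/mL, 1 h, 4 °C) and ABTS substrate, read spectrophotometrically. IC50 given as mean of several measurements.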

human Gal-1 (hGal-1) = human Gal-1 (hGal-1) (Homo sapiens, UniProt P09382); test: Competitive binding assay: biotinylated hGal-1 to microplate-adsorbed asialofetuin (ASF); details: Activities on hGal-1; binding to ASF-coated plates, 3 hours at 4° C.; mean values; read-out: Gal-1 IC50
Summary of the method: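 Plate-adsorbed asialofetuin is incubated 3 h at 4 °C with biotinylated hGal-1, optionally its all-serine-substituted cysteine variant, plus compound dilutions. ABTS color after 1 h streptavidin-peroxidase (80 ng/mL) at 4 °C reports binding. Reported IC50 is a mean across repeat runs.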

Sequence of human Gal-3 (hGal-3) (P17931 whole entry): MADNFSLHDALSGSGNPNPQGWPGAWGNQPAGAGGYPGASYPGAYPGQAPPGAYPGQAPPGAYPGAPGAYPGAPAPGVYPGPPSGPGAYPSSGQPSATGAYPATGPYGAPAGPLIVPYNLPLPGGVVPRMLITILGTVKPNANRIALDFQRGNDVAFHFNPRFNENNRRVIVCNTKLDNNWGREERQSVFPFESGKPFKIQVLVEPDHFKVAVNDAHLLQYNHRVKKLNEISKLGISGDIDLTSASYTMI
Sequence of human Gal-1 (hGal-1) (P09382 2-135 limits assumed): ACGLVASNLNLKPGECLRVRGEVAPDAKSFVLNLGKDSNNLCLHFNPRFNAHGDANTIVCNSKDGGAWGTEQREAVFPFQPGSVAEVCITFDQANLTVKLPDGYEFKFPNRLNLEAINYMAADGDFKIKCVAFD

`CO[C@@H]1[C@@H](n2cc(-c3cc(F)c(F)c(F)c3)nn2)[C@@H](O)[C@@H](CO)O[C@@H]1CC1=NO[C@]2(CC[C@@H](C)CC2)C1` [Example 1.34, (2R,3R,4S,5R,6R)-2-(hydroxymethyl)-5-methoxy-6-(((5s,8S)-8-methyl-1-oxa-2-azaspiro[4.5]dec-2-en-3-yl)methyl)-4-(4-(3,4,5-trifluorophenyl)-1H-1,2,3-triazol-1-yl)tetrahydro-2H-pyran-3-ol] was tested, and the IC50 (human Gal-3 (hGal-3)) was 520 nM and the IC50 (human Gal-1 (hGal-1)) was 2500 nM.
`CO[C@@H]1[C@@H](n2cc(-c3ccc(F)c(F)c3F)nn2)[C@@H](O)[C@@H](CO)O[C@@H]1CC1=NOC2(CCOCC2)C1` [Example 1.35, (2R,3R,4S,5R,6R)-6-((1,8-dioxa-2-azaspiro[4.5]dec-2-en-3-yl)methyl)-2-(hydroxymethyl)-5-methoxy-4-(4-(2,3,4-trifluorophenyl)-1H-1,2,3-triazol-1-yl)tetrahydro-2H-pyran-3-ol] gave an IC50 (human Gal-3 (hGal-3)) of 110 nM and an IC50 (human Gal-1 (hGal-1)) of 1400 nM.
`CO[C@@H]1[C@@H](n2cc(-c3ccc(C)c(F)c3F)nn2)[C@@H](O)[C@@H](CO)O[C@@H]1CC1=NOC2(CCOCC2)C1` [Example 1.36, (2R,3R,4S,5R,6R)-6-((1,8-dioxa-2-azaspiro[4.5]dec-2-en-3-yl)methyl)-4-(4-(2,3-difluoro-4-methylphenyl)-1H-1,2,3-triazol-1-yl)-2-(hydroxymethyl)-5-methoxytetrahydro-2H-pyran-3-ol] showed an IC50 (human Gal-3 (hGal-3)) of 64 nM and an IC50 (human Gal-1 (hGal-1)) of 3800 nM.
In the case of `CO[C@@H]1[C@@H](n2cc(-c3ccc(Cl)c(F)c3F)nn2)[C@@H](O)[C@@H](CO)O[C@@H]1CC1=NOC2(CCOCC2)C1` [Example 1.37, (2R,3R,4S,5R,6R)-6-((1,8-dioxa-2-azaspiro[4.5]dec-2-en-3-yl)methyl)-4-(4-(4-chloro-2,3-difluorophenyl)-1H-1,2,3-triazol-1-yl)-2-(hydroxymethyl)-5-methoxytetrahydro-2H-pyran-3-ol], the IC50 (human Gal-3 (hGal-3)) is reported as 120 nM and the IC50 (human Gal-1 (hGal-1)) is reported as 4600 nM.
Work on `CO[C@@H]1[C@@H](n2cc(-c3cc(F)c(F)c(F)c3)nn2)[C@@H](O)[C@@H](CO)O[C@@H]1CC1=NOC2(CCCCCC2)C1` [Example 1.38, (2R,3R,4S,5R,6R)-6-((1-oxa-2-azaspiro[4.6]undec-2-en-3-yl)methyl)-2-(hydroxymethyl)-5-methoxy-4-(4-(3,4,5-trifluorophenyl)-1H-1,2,3-triazol-1-yl)tetrahydro-2H-pyran-3-ol] yielded an IC50 (human Gal-3 (hGal-3)) of 160 nM and an IC50 (human Gal-1 (hGal-1)) of 6400 nM.
With `CO[C@@H]1[C@@H](n2cc(-c3cc(F)c(F)c(F)c3)nn2)[C@@H](O)[C@@H](CO)O[C@@H]1CC1=NO[C@]2(CC[C@@H](C#N)CC2)C1` [Example 1.39, (5s,8S)-3-(((2R,3R,4S,5R,6R)-5-hydroxy-6-(hydroxymethyl)-3-methoxy-4-(4-(3,4,5-trifluorophenyl)-1H-1,2,3-triazol-1-yl)tetrahydro-2H-pyran-2-yl)methyl)-1-oxa-2-azaspiro[4.5]dec-2-ene-8-carbonitrile] the IC50 (human Gal-3 (hGal-3)) was 260 nM and the IC50 (human Gal-1 (hGal-1)) was 7100 nM.
For `CO[C@@H]1[C@@H](n2cc(-c3cc(F)c(F)c(F)c3)nn2)[C@@H](O)[C@@H](CO)O[C@@H]1CC1=NO[C@]2(CC[C@H](C#N)CC2)C1` [Example 1.40, (5r,8R)-3-(((2R,3R,4S,5R,6R)-5-hydroxy-6-(hydroxymethyl)-3-methoxy-4-(4-(3,4,5-trifluorophenyl)-1H-1,2,3-triazol-1-yl)tetrahydro-2H-pyran-2-yl)methyl)-1-oxa-2-azaspiro[4.5]dec-2-ene-8-carbonitrile], the IC50 (human Gal-3 (hGal-3)) was 89 nM and the IC50 (human Gal-1 (hGal-1)) was 2000 nM.
In the case of `CO[C@@H]1[C@@H](n2cc(-c3ccc(F)c(F)c3F)nn2)[C@@H](O)[C@@H](CO)O[C@@H]1CC1=NO[C@]2(CC[C@H](NC(=O)OC(C)(C)C)CC2)C1` [Example 1.41, tert-butyl ((5r,8R)-3-(((2R,3R,4S,5R,6R)-5-hydroxy-6-(hydroxymethyl)-3-methoxy-4-(4-(2,3,4-trifluorophenyl)-1H-1,2,3-triazol-1-yl)tetrahydro-2H-pyran-2-yl)methyl)-1-oxa-2-azaspiro[4.5]dec-2-en-8-yl)carbamate], the IC50 (human Gal-3 (hGal-3)) is reported as 12 nM and the IC50 (human Gal-1 (hGal-1)) is reported as 300 nM.
In the case of `CO[C@@H]1[C@@H](n2cc(-c3ccc(F)c(F)c3F)nn2)[C@@H](O)[C@@H](CO)O[C@@H]1CC1=NO[C@]2(CC[C@@H](NC(=O)OC(C)(C)C)CC2)C1` [Example 1.42, tert-butyl ((5s,8S)-3-(((2R,3R,4S,5R,6R)-5-hydroxy-6-(hydroxymethyl)-3-methoxy-4-(4-(2,3,4-trifluorophenyl)-1H-1,2,3-triazol-1-yl)tetrahydro-2H-pyran-2-yl)methyl)-1-oxa-2-azaspiro[4.5]dec-2-en-8-yl)carbamate], the IC50 (human Gal-3 (hGal-3)) is reported as 132 nM and the IC50 (human Gal-1 (hGal-1)) is reported as 850 nM.
With `CO[C@@H]1[C@@H](n2cc(-c3ccc(C)c(F)c3F)nn2)[C@@H](O)[C@@H](CO)O[C@@H]1CC1=NO[C@]2(CC[C@H](NC(=O)OC(C)(C)C)CC2)C1` [Example 1.43, tert-butyl ((5r,8R)-3-(((2R,3R,4S,5R,6R)-4-(4-(2,3-difluoro-4-methylphenyl)-1H-1,2,3-triazol-1-yl)-5-hydroxy-6-(hydroxymethyl)-3-methoxytetrahydro-2H-pyran-2-yl)methyl)-1-oxa-2-azaspiro[4.5]dec-2-en-8-yl)carbamate] the IC50 (human Gal-3 (hGal-3)) was 15 nM and the IC50 (human Gal-1 (hGal-1)) was 1240 nM.
In the case of `CO[C@@H]1[C@@H](n2cc(-c3ccc(C)c(F)c3F)nn2)[C@@H](O)[C@@H](CO)O[C@@H]1CC1=NO[C@]2(CC[C@@H](NC(=O)OC(C)(C)C)CC2)C1` [Example 1.44, tert-butyl ((5s,8S)-3-(((2R,3R,4S,5R,6R)-4-(4-(2,3-difluoro-4-methylphenyl)-1H-1,2,3-triazol-1-yl)-5-hydroxy-6-(hydroxymethyl)-3-methoxytetrahydro-2H-pyran-2-yl)methyl)-1-oxa-2-azaspiro[4.5]dec-2-en-8-yl)carbamate], the IC50 (human Gal-3 (hGal-3)) is reported as 100 nM and the IC50 (human Gal-1 (hGal-1)) is reported as 4900 nM.
With `CO[C@@H]1[C@@H](n2cc(-c3ccc(Cl)c(F)c3F)nn2)[C@@H](O)[C@@H](CO)O[C@@H]1CC1=NO[C@]2(CC[C@H](NC(=O)OC(C)(C)C)CC2)C1` [Example 1.45, tert-butyl ((5r,8R)-3-(((2R,3R,4S,5R,6R)-4-(4-(4-chloro-2,3-difluorophenyl)-1H-1,2,3-triazol-1-yl)-5-hydroxy-6-(hydroxymethyl)-3-methoxytetrahydro-2H-pyran-2-yl)methyl)-1-oxa-2-azaspiro[4.5]dec-2-en-8-yl)carbamate] the IC50 (human Gal-3 (hGal-3)) was 10 nM and the IC50 (human Gal-1 (hGal-1)) was 800 nM.
`CO[C@@H]1[C@@H](n2cc(-c3ccc(Cl)c(F)c3F)nn2)[C@@H](O)[C@@H](CO)O[C@@H]1CC1=NO[C@]2(CC[C@@H](NC(=O)OC(C)(C)C)CC2)C1` [Example 1.46, tert-butyl ((5s,8S)-3-(((2R,3R,4S,5R,6R)-4-(4-(4-chloro-2,3-difluorophenyl)-1H-1,2,3-triazol-1-yl)-5-hydroxy-6-(hydroxymethyl)-3-methoxytetrahydro-2H-pyran-2-yl)methyl)-1-oxa-2-azaspiro[4.5]dec-2-en-8-yl)carbamate] gave an IC50 (human Gal-3 (hGal-3)) of 60 nM and an IC50 (human Gal-1 (hGal-1)) of 1800 nM.
With `CO[C@@H]1[C@@H](n2cc(-c3cc(F)c(C)cc3F)nn2)[C@@H](O)[C@@H](CO)O[C@@H]1CC1=NOC2(CCCCC2)C1` [Example 1.47, (2R,3R,4S,5R,6R)-6-((1-oxa-2-azaspiro[4.5]dec-2-en-3-yl)methyl)-4-(4-(2,5-difluoro-4-methylphenyl)-1H-1,2,3-triazol-1-yl)-2-(hydroxymethyl)-5-methoxytetrahydro-2H-pyran-3-ol] the IC50 (human Gal-3 (hGal-3)) was 430 nM and the IC50 (human Gal-1 (hGal-1)) was 2200 nM.
